This note sets out measurements from patent US8628961B2, “Small molecule antagonists of phosphatidylinositol-3,4,5-triphosphate (PIP3) and uses thereof” (Tufts University, priority 2010, dated 2014).

Data set [1] has as its system U87MG cells. The data set can be described thus: Combination with Akt kinase inhibitors in U87MG cells (western blot, ATP assay). Format: cell-based, human. The method, then:
U87MG cells were treated with 100 μM PIT-1, or 10 μM Akt inhibitor VIII (Calbiochem) or Akt inhibitor (Calbiochem), or 100 μM PIT-1 together with 10 μM Akt inhibitor VIII or Akt inhibitor, for 12 hr and then phosphorylation events were evaluated by western blot.
(In western blotting, separated proteins are transferred to a membrane and probed.)

Data set [2] deals with T1, Akt PH domain (Homo sapiens (Human), UniProt P31749). In words: PH domain translocation assay (GFP fusion, plasma membrane). Format: cell-based. To be noted: PDGF stimulation. The method, then:
Cells were transfected with the corresponding GFP-fusion vectors, serum starved overnight, and incubated with 100 μM PITs or PIT-1 is for 2 hr, followed by stimulation with 100 ng/ml PDGF or 250 ng/ml PMA for 5 min. The translocation was analyzed using fluorescent microscope and was quantitated by counting the number of cells with translocated PH domains in five random fields.
To begin characterizing cellular activity of PITs, a PH domain translocation assay was performed, measuring PIP3-induced association of GFP-fused PH domains with the plasma membrane. […] Varnai P et al. (1999) J Biol Chem 274:10983-9. Several PH-domain-containing proteins, which are known to bind PIP3 specifically and efficiently, were examined. […] Oikawa T et al. (2004) Nat Cell Biol 6:420-6.
Target sequence in this assay (P31749 5-108): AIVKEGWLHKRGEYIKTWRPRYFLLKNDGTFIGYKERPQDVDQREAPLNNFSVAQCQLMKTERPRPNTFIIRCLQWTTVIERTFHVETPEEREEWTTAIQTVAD

Data set [3] deals with GRP1 PH domain (Homo sapiens, UniProt O43739). In words: FP PIP3/GRP1 PH domain binding assay. The note with it: 15 nM TMR-conjugated PIP3, 100 nM GRP1 PH domain, 30 min.
Data set [4] has as its target PDK1 PH domain (Homo sapiens (Human), UniProt O15530). The data set can be described thus: FP PIP3/PDK1 PH domain binding assay. To be noted: 15 nM TMR-conjugated PIP3, 100 nM PDK1 PH domain, 30 min. The source says: (§1) In order to identify compounds that disrupt the interaction between PIP3 and PH domains, a high-throughput fluorescence polarization (FP)-binding assay was developed using recombinant 1-123 amino acid N-terminal fragment of human Akt1 (also referred to herein simply as Akt), encompassing the PH domain (PH123 protein), and fluorescent […] PIP3 molecule. The amino acid sequence of human Akt1 is publicly available as, for example, GenBank Accession No. NP_001014432.1 (SEQ ID NO:1), and the corresponding DNA sequence is publicly available as, for example, GenBank Accession No. NM_001014432. Briefly, 5 μM recombinant GST fusion proteins containing 1-123 a.a. N-terminal fragment of human Akt1 (PH 123) or 100 nM 441-551 a.a. region of human PDK1 were incubated with 15 nM TMR-labeled PIP3, PIP2, or PIP5 in buffer containing 50 mM Tris-HCl (pH 7.5), 150 mM NaCl, and 5 mM b-ME for 15 min at room temperature in the dark. FP values were determined using Wallac Victor 3 plate reader. For the primary screen, 50,000 diverse small molecules from Harvard Institute of Chemistry and Cell Biology were screened (iccb.med.harvard.edu). Incubations were carried out for 1 hr. For secondary assays, PIT compounds were added at various concentrations (6.25, 12.5, 25, 50, 100, 150 and 200 μM), followed by a 30 min incubation. The inhibition rates were calculated as inhibition rate=[1−(compound-treated group/control group)]×100%, and IC50 value was determined using Origin6 software (MicroCal, LLC, Northampton, Mass.).

In data set [5] the test system is U87MG cells. In words: cells. The class given is cell-based. The note with it: for IC50: Homo sapiens, U-87 MG, U87MG cells, 48 hr, ATP assay, read-out: Cell Viability IC50. The method, then: Based on the critical role of PIP3-dependent […] signaling in the regulation of cell survival, the effect of PIT-1 on the cancer cell viability was tested. Cancer cells were seeded into 96-well plates (white plates for ATP assay; black plates for fluorescent assay; clear plates for MTS assay) at the density of 5-10×10^3 cells per well in 100 μl of the appropriate media. Compounds were added at a series of concentrations and incubated for different times. For the ATP assay, a luminescence-based commercial kit (CellTiter-Glo, Promega, Madison, Wis.) was used. Thirty microliters of cell lysis/ATP detection reagent was added to each well, mixed for 10 min at room temperature, and the luminescence was measured using a Wallac Victor 3 plate reader (Perkin-Elmer, Wellesley, Mass.). For the MTS assay, a CellTiter 96 AQueous Non-Radioactive Cell Proliferation Assay Kit (Promega, Madison, Wis., USA) was used. Twenty microliters of the combined MTS/PMS solution was added into each well, incubated for 4 hr at 37° C., and the absorbance at 490 nm was measured using a Wallac Victor 3 plate reader. For the Sytox cell death assay, measuring loss of plasma membrane integrity, cells were incubated with 1 μM Sytox Green reagent (Molecular Probes, Eugene, Oreg.) for 30 min at 37° C. and the fluorescence intensity was measured using Wallac Victor 3 plate reader with excitation at 485 nm and emission at 545 nm. Next, 5 μl of 20% (v/v) Triton X-100 solution was added to each well and incubated for 1 hr at 37° C., and the signal was measured again. The ratio of values (percentage of dead cells in each well) before and after Triton X-100 treatment was calculated and normalized to the relevant controls not subjected to the cytotoxic stimuli. IC50 values were determined using Origin6 software (MicroCal, LLC, Northampton, Mass.).
To measure induction of cell death by PIT-1 derivatives, U87MG cells were incubated with PITs (1.56-300 μM) for 48 hr. Cell viability was determined using ATP assay.

In data set [6] the target is T1, Akt PH domain. The data set can be described thus: Fluorescence polarization (FP) PIP3/Akt PH domain binding assay. The note with it: for IC50: 15 nM TMR-conjugated PIP3, PITs 6.25-200 μM, 30 min.
Excerpt: as §1
Target sequence in this assay (P31749 1-123): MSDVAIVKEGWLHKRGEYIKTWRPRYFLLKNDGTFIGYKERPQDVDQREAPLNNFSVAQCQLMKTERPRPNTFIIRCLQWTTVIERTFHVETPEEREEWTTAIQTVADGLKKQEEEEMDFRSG

Data set [7] relates to PI3K-PDK1-Akt pathway. In words: PIP3-regulated phosphorylation events in U87MG cells. Format: cell-based, human. The method, then: The effect of PIT-1 on PIP3-mediated signaling was examined in U87MG glioblastoma cells, which show elevated basal levels of PIP3 due to the loss of PTEN. Pore N et al. (2003) Cancer Res 63:236-41.
Data set [8] has as its system U87MG cells. The data set can be described thus: Sensitization of U87MG cells to TRAIL, ATP assay. Format: cell-based, human. The method, then: FIG. 10 is a bar graph depicting that PITs, as well as Akt inhibitor VIII, sensitize U87MG cells to killing by TRAIL. U87MG cells were incubated with 50 μM PIT-1, PIT-2, PIT-1i-1 or 10 μM Akt inhibitor VIII in the presence or absence of 10 ng/ml TRAIL for 48 hr, followed by cell viability analysis using ATP assay.
Upregulation of PI3K/Akt signaling is an important mechanism of chemoresistance of cancer cells. Blume-Jensen P et al. (2001) Nature 411:355-65; Osaki M et al. (2004) Apoptosis 9:667-76. […] Puduvalli V K et al. (2005) Apoptosis 10:233-43 TRAIL represents a particularly promising anti-cancer agent due to its intrinsic selectivity towards cancer cells which is associated with the expression of the decoy receptors by many (but not all) normal cells. Abe K et al. (2000) Ann NY Acad Sci 926:52-63. […] Oka N et al. (2005) Cancer Res 65:7546-53.

The IC50 is the concentration needed to halve the response being measured. As a reminder, the melting point is the temperature, or range, at which the solid turns liquid.

Chain of PDK1 PH domain (O15530 441-551): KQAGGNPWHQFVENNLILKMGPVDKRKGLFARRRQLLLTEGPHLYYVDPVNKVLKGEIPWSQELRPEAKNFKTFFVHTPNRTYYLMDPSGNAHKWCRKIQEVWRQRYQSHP

Turning to `CCN(CC)CCCCN1c2ccccc2Oc2ccc(Cl)cc21` [Akt inhibitor X], the “combination of Akt inhibitors VIII and X” value in data set [1] is on record as “no additive effect”. For the same molecule, in data set [2], the “plasma membrane translocation of Akt PH domain” value is reported as “Neither Akt inhibitor X nor allosteric inhibitor VIII blocked membrane translocation”.

For the molecule `Cc1cc(C)cc(C(=O)NC(=S)Nc2c(O)cc(C)c(Cl)c2C)c1` [PIT-3, N-(3-Chloro-6-hydroxy-2,4-dimethylphenylcarbamothioyl)-3,5-dimethylbenzamide], the melting point lay within 185 to 186 °C. In addition, in [3], the IC50 was more than 200 µM. The same molecule came in with an IC50 in [4] of 107 ± 3.9 µM. The IC50 in [5] turned out to be 12.4 ± 0.9 µM. In data set [6], the “Akt potency and selectivity compared to PIT-1” value (shortened to “Akt potency and selectivity”) was “improved Akt potency and selectivity compared to PIT-1”; the IC50 is 17.5 ± 1.6 µM.

Turning to `Cc1cc(C)cc(C(=O)NC(=S)Nc2cc(C(F)(F)F)ccc2O)c1` [PIT-4, N-(2-Hydroxy-5-(trifluoromethyl)phenylcarbamothioyl)-3,5-dimethylbenzamide], the melting point is 208 to 209 °C. The same molecule had an IC50 in data set [3] of more than 200 µM. This molecule yielded an IC50 in [4] of more than 200 µM. In addition, the IC50 in [5] was determined as 20.7 ± 3.3 µM. In data set [6], the “Akt potency and selectivity” value was “improved Akt potency and selectivity compared to PIT-1”; the IC50 turned out to be 22.6 ± 3 µM.

`Cc1cc(C)cc(C(=O)NC(=S)Nc2c(O)cc(C(F)(F)F)cc2C(F)(F)F)c1` [PIT-5, N-(2-Hydroxy-4,6-bis(trifluoromethyl)phenylcarbamothioyl)-3,5-dimethylbenzamide]: the melting point was 167 to 168 °C. Moreover, in [3], the IC50 is more than 200 µM. The IC50 in [4] is more than 200 µM. In addition, the IC50 in data set [5] is 18.8 ± 1.7 µM. In data set [6], the “Akt potency and selectivity” value was “improved Akt potency and selectivity compared to PIT-1”; the IC50 came to 20.8 ± 2.5 µM.

`Cc1cc(C)cc(C(=O)NC(=S)Nc2c(O)cc(C)c(Br)c2C)c1` [PIT-6, N-(3-Bromo-6-hydroxy-2,4-dimethylphenylcarbamothioyl)-3,5-dimethylbenzamide]: the melting point is 164.5 to 166 °C. The molecule also came in with an IC50 in data set [3] of more than 200 µM. Also, the IC50 in data set [4] was more than 200 µM. The IC50 in [5] was found to be 12.6 ± 2.1 µM. In [6], the “Akt potency and selectivity” value was “improved Akt potency and selectivity compared to PIT-1”; the IC50 was found to be 18.1 ± 3.1 µM.

With `Cc1cc(C)cc(C(=O)NC(=S)Nc2cc(-c3ccccc3)ccc2O)c1` [PIT-7, N-(4-Hydroxybiphenyl-3-ylcarbamothioyl)-3,5-dimethylbenzamide], the IC50 in [3] was more than 200 µM; in [4] it was 52.3 ± 2.3 µM; in data set [5], 6.6 ± 0.3 µM; in [6], 13.4 ± 2.1 µM. In addition, the “cytotoxicity / reduction of cancer cell viability relative to other PITs” value in data set [5] is listed as “strongest activity”. Moreover, in data set [7], the “PI3K-PDK1-Akt signaling in U87MG cells” value is reported as “strongest activity”.

B1: TRAIL: Tumor necrosis factor (TNF)-related apoptosis-inducing ligand, 281 amino acid member of the TNF family of cytokines (protein, UniProt P50591 1-281, looked up)
Tumor necrosis factor ligand …: MAMMEVQGGPSLGQTCVLIVIFTVLLQSLCVAVTYVYFTNELKQMQDKYSKSGIACFLKEDDSYWDPNDEESMNSPCWQVKWQLRQLVRKMILRTSEETISTVQEKQQNISPLVRERGPQRVAAHITGTRGRSNTLSSPNSKNEKALGRKINSWESSRSGHSFLSNLHLRNGELVIHEKGFYYIYSQTYFRFQEEIKENTKNDKQMVQYIYKYTSYPDPILLMKSARNSCWSKDAEYGLYSIYQGGIFELKENDRIFVSVTNEHLIDMDHEASFFGAFLVG
Turning to B1, the “sensitivity of U87MG cells to TRAIL alone” value in data set [8] is on record as “entirely resistant”.
